In one experiment the target is T1, MUC1-C (Homo sapiens, UniProt P15941).
T1 sequence (P15941 1098-1255 limits assumed): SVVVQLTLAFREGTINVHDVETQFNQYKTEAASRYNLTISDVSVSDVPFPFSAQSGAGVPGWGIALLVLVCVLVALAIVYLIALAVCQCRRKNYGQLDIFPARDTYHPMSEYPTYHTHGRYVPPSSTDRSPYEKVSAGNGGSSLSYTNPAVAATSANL
Briefly: Immunoblot of MUC1-C levels in MCF-10A cells (flavones). In kind it is cell-based. The conditions noted are these: 50 to 100 μM, 3 d then additional 3 d. The arrangement: endogenous in cells. As for the experimental part:
FIGS. 13A-D—Apigenin downregulates MUC1 and confers death of MCF-10A cells. (FIG. 13A) MCF-10A cells were treated with the indicated concentrations of apigenin and baicalein for 3 d, washed and then treated for an additional 3 d. Lysates were immunoblotted with the indicated antibodies. (FIG. 13B) MCF-10A cells were treated with the indicated concentrations apigenin (circles) and baicalein (squares) for 3 d. Viable cell number was determined by the MTS assay. The results (mean+SD of 3 determinations) are expressed as percentage of control growth in the presence of DMSO. (FIG. 13C) MCF-10A cells were treated with DMSO, 75 μM apigenin or 75 μM baicalein for 3 d. Lysates were subjected to immunoblotting with the indicated antibodies. (FIG. 13D) MCF-10A cells were treated with DMSO, 75 μM apigenin or 75 μM baicalein for 3 d, stained with propidium iodide and analyzed by flow cytometry.

Experiment [1] concerns MUC1-expressing cancer cells. Description: Secondary screen against MUC1-expressing cancer cells in vitro. In kind it is cell-based. The settings on record: legend: ZR-75-1 breast carcinoma cells, 2 days, anti-MUC1-C immunoblot. As for the experimental part: ZR-75-1 breast carcinoma cells were treated with […] Kaempterol for 2 days. Total cell lysates were then analyzed by immunoblotting with anti-MUC1-C antibody (FIG. 17A) or with anti-Actin antibodies (FIG. 17B).
Initial screens were performed in the presence of compounds at a concentration of 100 μM.

For a further experiment, the system named is MUC1. Briefly: MUC1 mRNA (qRT-PCR) and MUC1-C protein (immunoblot) in MCF-7 cells. The conditions noted are these: for MUC1 mRNA levels: MCF-7, 75 μM, 3 d, qRT-PCR; for MUC1-C protein in the nucleus / MUC1-C protein in whole cell lysates: MCF-7, 3 days. In kind it is cell-based, human. As for the experimental part: FIGS. 14A-E—Apigenin suppresses MUC1 expression in MCF-7 cells. (FIG. 14A) MCF-7 cells were treated with DMSO vehicle, 75 μM apigenin or 75 μM baicalein for 3 d. Total RNA was assayed for MUC1 mRNA levels by qRTPCR. The results (mean+SD of 3 determinations) are expressed as relative MUC1 mRNA levels as compared to that obtained in cells treated with DMSO. (FIGS. 14B-C) MCF-7 cells were treated with the indicated concentrations of apigenin and baicalein for 3 days. Nuclear (FIG. 14B) and whole cell lysates (FIG. 14C) were immunoblotted with the indicated antibodies. D. Lysates from MCF-7 cells were infected to stably express a control lentivirus and one with a MUC1 shRNA were immunoblotted with the indicated antibodies. (FIG. 14E) The indicated MCF-7 cells were treated with […] apigenin for 3 d. Viable cell number was determined by the MTS assay. The results (mean+SD of 3 determinations) are expressed as percentage of control growth in the presence of DMSO.

Another experiment has as its target T2, His-MUC1-CD (Homo sapiens, UniProt P15941).
T2 construct: made in house
T2 sequence (P15941 1184-1255): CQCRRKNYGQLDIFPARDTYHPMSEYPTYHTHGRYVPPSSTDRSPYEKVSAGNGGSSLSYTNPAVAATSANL
Description: BIAcore binding of peptides to immobilized His-MUC1-CD. As for the experimental part:
FIGS. 1A-D. MUC1/CQC peptide blocks MUC1 oligomerization. (FIG. 1A) Schematic representation of the MUC1-C subunit and the 72-amino acid sequence of MUC1-CD (SEQ ID NO: 1) are shown. The N-terminal 15 amino acids (shaded sequence) MUC1/CQC (SEQ ID NO: 10) and mutated MUC1/AQA (SEQ ID NO: 11) peptides were synthesized with the poly-dArg transduction domain. (FIG. 1B) His-MUC1-CD (1.4 mg/ml) was immobilized on a sensor chip in a BIAcore. MUC1/CQC was injected over the chip at 10 μM. Raw binding data were analyzed by BIAevaluation software version 3.0 and fit to a 1:1 Languir binding model. (FIG. 1C) Purified His-MUC1-CD (1.5 mg/ml) was incubated with PBS, 200 μM MUC1/CQC or 200 μM MUC1/AQA for 1 h at room temperature. The proteins were separated in a non-reducing SDS-polyacrylamide gel and analyzed by immunoblotting with anti-MUC1-C. (FIG. 1D) 293 cells were transiently transfected to express an empty vector or GFP-MUC1-CD and Flag-MUC1-CD. At 48 h after transfection, the cells were treated with 5 μM MUC1/CQC or MUC1/AQA for 3 d. The cells were then harvested for immunoblotting with anti-MUC1-C (left panel). […]
The MUC1 cytoplasmic domain (MUC1-CD) contains a CQC motif that is necessary for the formation of oligomers and nuclear localization (Leng et al., 2007). […] Purified His-tagged MUC1-CD forms oligomers as detected by electrophoresis in polyacrylamide gels (FIG. 1C). […]

For the compound `O=c1cc(-c2ccc(O)cc2)oc2cc(O)cc(O)c12` [Apigenin, 4′,5,7-trihydroxyflavone], the MUC1-C levels result at MUC1-C is recorded as “downregulation of MUC1-C levels”. In experiment [1], the “inhibition (FIGS. 17A-B)” value is listed as “showed inhibition”. Also, in the experiment on MUC1, the “MUC1 mRNA levels” value is on record as “downregulation of MUC1 mRNA levels”, the “MUC1-C protein in the nucleus” value was “decreased expression of the MUC1-C protein” and the “MUC1-C protein in whole cell lysates” value was “decreased expression of the MUC1-C protein”.
`O=c1cc(-c2ccccc2)oc2cc(O)c(O)c(O)c12` [Baicalein, 5,6,7-trihydroxyflavone, reference compound]: the MUC1-C levels entry on MUC1-C is given as “no apparent effect”. Also, the “inhibition (FIGS. 17A-B)” value in experiment [1] is listed as “did not”. For the same compound, in the experiment with MUC1, the “MUC1 mRNA levels” value is recorded as “no apparent effect”, the “MUC1-C protein in the nucleus” value was “not” and the “MUC1-C protein in whole cell lysates” value was “not”.
Regarding `CC[C@H](C)[C@H](NC(=O)[C@H](CC(=O)O)NC(=O)[C@H](CC(C)C)NC(=O)[C@H](CCC(N)=O)NC(=O)CNC(=O)[C@H](Cc1ccc(O)cc1)NC(=O)[C@H](CC(N)=O)NC(=O)[C@H](CCCCN)NC(=O)[C@H](CCCNC(=N)N)NC(=O)[C@H](CCCNC(=N)N)NC(=O)[C@H](CS)NC(=O)[C@H](CCC(N)=O)NC(=O)[C@H](CS)NC(=O)[C@@H](CCCNC(=N)N)NC(=O)[C@@H](CCCNC(=N)N)NC(=O)[C@@H](CCCNC(=N)N)NC(=O)[C@@H](CCCNC(=N)N)NC(=O)[C@@H](CCCNC(=N)N)NC(=O)[C@@H](CCCNC(=N)N)NC(=O)[C@@H](CCCNC(=N)N)NC(=O)[C@@H](CCCNC(=N)N)NC(=O)[C@H](N)CCCNC(=N)N)C(=O)N[C@@H](Cc1ccccc1)C(=O)N1CCC[C@H]1C(=O)O` [MUC1/CQC], at His-MUC1-CD (His-tagged MUC1-CD immobilized on BIAcore sensor chip, peptide injected at 10 μM, 1:1 binding model, read-out: dissociation constant (Kd)), the Kd turned out to be 0.03 µM.
Turning to “MUC1/AQA: control peptide in which the CQC motif was altered to AQA (SEQ ID NO: 11) (AQARRKNYGQLDIFP) [reference compound]”, the “binding to His-MUC1-CD” value with His-MUC1-CD (BIAcore, data not shown) is recorded as “no apparent binding”.

The record behind these values is patent US8952054B2, “Small molecule inhibitors of MUC1 and methods of identifying the same” (Dana-Farber Cancer Institute, Inc., priority 2010, dated 2015).
